Test results as given in patent US9943506B2, “BCL6 inhibitors as anticancer agents” (Cornell University, priority 2013, dated 2018).
Like-named read-outs stand apart in the source and are kept apart here.

Key:
Type in all cases: cell-based
[1] = system: SUDHL6 DLBCL cells; experiment: Growth inhibition of DLBCL cells, SUDHL6; details: Homo sapiens, SU-DHL-6
Experimental: (§1) 50,000 cells per well were treated for 48 hours with different concentrations of the compounds in 96 well plates, using DMSO as a control. Then, viability was determined with Cell Titer Blue™ (Promega) and growth inhibition was calculated as the percentage of viable cells with respect to cells treated with DMSO alone. GI50 values were determined by dose-response curves.
(§2) 293T cells were grown in Dulbecco's modified Eagles medium supplemented with 10% fetal bovine serum (FBS) (Gemini Bio-Products, Woodland, Calif.) and 1% penicillin-streptomycin. DLBCL cell lines OCI-Ly1, OCI-Ly1-B50, OCI-Ly7, OCI-Ly10 and OCI-Ly19 were grown in 80% Iscove's medium, 20% FBS and penicillin G/streptomycin. DLBCL cell lines Toledo, Farage, SU-DHL4, DOHH-2, SC-1, RCK8, TMD8, HBL-1, Ly3, Karpas 422 and SU-DHL6 were cultured in 90% RPMI medium, 10% FBS, 2 mM glutamine, 10 mM Hepes and penicillin G/streptomycin. All cell lines were cultured at 37° C. in a humidified atmosphere of 5% CO2.

[2] = system: Ly7 DLBCL cells; experiment: Growth inhibition of DLBCL cells, Ly7
Experimental: as §1, §2

[3] = system: Toledo DLBCL cells; experiment: Growth inhibition of DLBCL cells, Toledo; details: Homo sapiens
Experimental: as §1, §2

[4] = system: Ly3 DLBCL cells; experiment: Growth inhibition of DLBCL cells, Ly3; details: Table 2; BCL-6 dependent; 48 hours
Experimental: as §1, §2

[5] = system: Karpas 422 DLBCL cells; experiment: Growth inhibition of DLBCL cells, Karpas 422; details: Homo sapiens, Table 2, BCL-6 independent, 48 hours, read-out: GI50 Karpas 422
Experimental: as §1, §2

[6] = system: Ly10 DLBCL cells; experiment: Growth inhibition of DLBCL cells, Ly10; details: Table 2, BCL-6 dependent, 48 hours
Experimental: as §1, §2

[7] = system: Ly1B50 DLBCL cells; experiment: Growth inhibition of DLBCL cells, Ly1B50; details: Table 2; BCL-6 independent; 48 hours
Experimental: as §1, §2

[8] = Table 10, BCL6 dependent, read-out: GI50 SUDHL6
[9] = Table 2, BCL-6 dependent, 48 hours, read-out: GI50 SUDH6
[10] = 48 h, Table 2, BCL-6 independent
[11] = Table 2, BCL-6 dependent, 48 hours
[12] = Table 2, BCL-6 independent, 48 hours

| GI50 [1, 8] [µM] | GI50 ([1]; Table 13, BCL6 dependent, read-out: GI50 SUDHL6) [µM] | GI50 [1, 9] [µM] | GI50 [5] [µM] | Structure (SMILES) | GI50 ([2]; Table 10, BCL6 dependent) [µM] | GI50 ([3]; Table 10, BCL6 independent) [µM] | GI50 ([2]; Table 13, BCL6 dependent) [µM] | GI50 ([3]; Table 13, BCL6 independent) [µM] | GI50 ([2]; 48 h, Table 2, BCL-6 dependent) [µM] | GI50 [4] [µM] | GI50 [3, 10] [µM] | GI50 [6] [µM] | GI50 [7] [µM] | GI50 [2, 11] [µM] | GI50 [3, 12] [µM] |
| --- | --- | --- | --- | --- | --- | --- | --- | --- | --- | --- | --- | --- | --- | --- | --- |
| > 125 |  |  |  | Cc1ccc(COC(=O)Cn2c(=O)oc3cc(Cl)ccc32)cc1 [Compound 333] | > 125 | > 125 |  |  |  |  |  |  |  |  |  |
| > 125 |  |  |  | Cc1cccc(COC(=O)Cn2c(=O)oc3cc(Cl)ccc32)c1 [Compound 334] | > 125 | > 125 |  |  |  |  |  |  |  |  |  |
| > 125 |  |  |  | O=C(Cn1c(=O)oc2cc(Cl)ccc21)OCc1ccc(C(F)(F)F)cc1 [Compound 339] | > 125 | > 125 |  |  |  |  |  |  |  |  |  |
| > 125 |  |  |  | C[C@@H](OC(=O)Cn1c(=O)oc2cc(Cl)ccc21)c1ccccc1 [Compound 341] | > 125 | > 125 |  |  |  |  |  |  |  |  |  |
|  | > 125 |  |  | COc1ccc2[nH]c(SCc3ccccc3)nc2c1 [Compound 1059] |  |  | > 125 | > 125 |  |  |  |  |  |  |  |
|  |  | > 40 | > 40 | O=C(O)CCN1C(=O)/C(=C2/C(=O)Nc3c(Cl)cc(Cl)cc32)SC1=S [Compound 1093, (Z)-3-(5-(5,7-Dichloro-2-oxoindolin-3-ylidene)-4-oxo-2-thioxothiazolidin-3-yl)propanoic acid] |  |  |  |  | 30 ± 9 | > 40 | > 40 | 21 ± 12 | > 40 |  |  |
|  |  | > 40 | > 40 | Cc1cc(Cl)cc2c1NC(=O)/C2=C1\SC(=S)N(CCC(=O)O)C1=O [Compound 1095, (Z)-3-(5-(5-Chloro-7-methyl-2-oxoindolin-3-ylidene)-4-oxo-2-thioxothiazolidin-3-yl)propanoic acid] |  |  |  |  | > 40 | > 40 | > 40 | > 40 | > 40 |  |  |
|  |  | > 40 | > 40 | Cc1ccc2c(c1)/C(=C1/SC(=S)N(CCC(=O)O)C1=O)C(=O)N2 [Compound 1097, (Z)-3-(5-(5-Methyl-2-oxoindolin-3-ylidene)-4-oxo-2-thioxothiazolidin-3-yl)propanoic acid] |  |  |  |  | > 40 | > 40 | > 40 | 18 ± 8 | > 40 |  |  |
|  |  | > 40 | > 40 | COc1cc(Br)cc2c1NC(=O)/C2=C1\SC(=S)N(CCC(=O)O)C1=O [Compound 1113, (Z)-3-(5-(5-Bromo-7-methoxy-2-oxoindolin-3-ylidene)-4-oxo-2-thioxothiazolidin-3-yl)propanoic acid] |  |  |  |  | 12 ± 7 | > 40 | > 40 | > 40 | > 40 |  |  |
|  |  | 26 ± 7 | > 40 | O=C(O)CCN1C(=O)/C(=C2/C(=O)Nc3ccc(F)cc32)SC1=S [Compound 1115, (Z)-3-(5-(5-Fluoro-2-oxoindolin-3-ylidene)-4-oxo-2-thioxothiazolidin-3-yl)propanoic acid] |  |  |  |  | 24 ± 6 | 22 ± 9 | > 40 | 34 ± 3 | > 40 |  |  |
|  |  | 25 ± 4 | > 40 | O=C(O)CCN1C(=O)/C(=C2/C(=O)Nc3c(F)cccc32)SC1=S [Compound 1117, (Z)-3-(5-(7-Fluoro-2-oxoindolin-3-ylidene)-4-oxo-2-thioxothiazolidin-3-yl)propanoic acid] |  |  |  |  | 36 ± 1 | 21 ± 4 | > 40 | > 40 | > 40 |  |  |
|  |  | > 40 | > 40 | O=C(O)CCN1C(=O)/C(=C2/C(=O)Nc3ccc(Br)cc32)SC1=S [Compound 1165, (Z)-3-(5-(5-Bromo-2-oxoindolin-3-ylidene)-4-oxo-2-thioxothiazolidin-3-yl)propanoic acid] |  |  |  |  | > 40 | 17 ± 6 | > 40 | 25 ± 9 | > 40 |  |  |
|  |  | 29 ± 1 | > 40 | O=C(O)CCN1C(=O)/C(=C2/C(=O)Nc3c(Cl)cccc32)SC1=S [Compound 1167, (Z)-3-(5-(7-Chloro-2-oxoindolin-3-ylidene)-4-oxo-2-thioxothiazolidin-3-yl)propanoic acid] |  |  |  |  | 22 ± 1 | > 40 | > 40 | 24 ± 2 | > 40 |  |  |
|  |  | 30 ± 3 | 27 ± 8 | O=C(O)CCN1C(=O)/C(=C2/C(=O)Nc3ccc([N+](=O)[O-])cc32)SC1=S [Compound 1169, (Z)-3-(5-(5-Nitro-2-oxoindolin-3-ylidene)-4-oxo-2-thioxothiazolidin-3-yl)propanoic acid] |  |  |  |  | 28 ± 7 | 29 ± 5 | > 40 | 20 ± 10 | > 40 |  |  |
|  |  | > 40 | > 40 | O=C(O)CCN1C(=O)/C(=C2/C(=O)Nc3ccccc32)SC1=S [Compound 2001, (Z)-3-(4-Oxo-5-(2-oxoindolin-3-ylidene)-2-thioxothiazolidin-3-yl)propanoic acid] |  |  |  |  | > 40 | > 40 | > 40 | > 40 | > 40 |  |  |
|  |  | > 6 | > 6 | CCOC(=O)CCN1C(=O)/C(=C2/C(=O)Nc3ccc(Cl)cc32)SC1=S [Compound 2003, (Z)-Ethyl 3-(5-(5-chloro-2-oxoindolin-3-ylidene)-4-oxo-2-thioxothiazolidin-3-yl)propanoate] |  |  |  |  | > 6 | > 6 | > 6 | > 6 | > 6 |  |  |
|  |  | 25 ± 6 | > 40 | O=C(O)CCN1C(=O)/C(=C2/C(=O)Nc3ccc(I)cc32)SC1=S [Compound 2005, (Z)-3-(5-(5-Iodo-2-oxoindolin-3-ylidene)-4-oxo-2-thioxothiazolidin-3-yl)propanoic acid] |  |  |  |  | > 40 | > 40 | > 40 | 21 ± 2 | > 40 |  |  |
|  |  | > 40 | > 40 | O=C(O)CN1C(=O)/C(=C2/C(=O)Nc3ccc(Cl)cc32)SC1=S [Compound 2031, (Z)-2-(5-(5-Chloro-2-oxoindolin-3-ylidene)-4-oxo-2-thioxothiazolidin-3-yl)acetic acid] |  |  |  |  | > 40 | > 40 | > 40 | > 40 | > 40 |  |  |

| Structure (SMILES) | GI50 [1, 8] [µM] | GI50 ([1]; Table 13, BCL6 dependent, read-out: GI50 SUDHL6) [µM] | GI50 [1, 9] [µM] | GI50 [5] [µM] | GI50 ([2]; Table 10, BCL6 dependent) [µM] | GI50 ([3]; Table 10, BCL6 independent) [µM] | GI50 ([2]; Table 13, BCL6 dependent) [µM] | GI50 ([3]; Table 13, BCL6 independent) [µM] | GI50 ([2]; 48 h, Table 2, BCL-6 dependent) [µM] | GI50 [4] [µM] | GI50 [3, 10] [µM] | GI50 [6] [µM] | GI50 [7] [µM] | GI50 [2, 11] [µM] | GI50 [3, 12] [µM] |
| --- | --- | --- | --- | --- | --- | --- | --- | --- | --- | --- | --- | --- | --- | --- | --- |
| O=C(O)CCN1C(=O)C(C2(O)C(=O)Nc3ccc(F)cc32)SC1=S (centres unmarked) [Compound 2021] |  |  | > 40 | > 40 |  |  |  |  |  | > 40 |  | > 40 | > 40 | > 40 | > 40 |
| O=C(O)CCN1C(=O)SC(C2(O)C(=O)Nc3ccc(Cl)cc32)C1=O (centres unmarked) [Compound 2023] |  |  | 21 ± 3 | > 40 |  |  |  |  |  | > 40 |  | > 40 | > 40 | 21 ± 10 | > 40 |
| O=C(O)CCN1C(=O)C(C2(O)C(=O)Nc3ccc(Br)cc32)SC1=S (centres unmarked) [Compound 2025] |  |  | 14 ± 2 | 22 ± 7 |  |  |  |  |  | > 40 |  | 15 ± 8 | > 40 | 13 ± 1 | > 40 |
| O=C(O)CCN1C(=O)SC(C2(O)C(=O)Nc3ccc(I)cc32)C1=O (centres unmarked) [Compound 2027] |  |  | 7 ± 1 | > 40 |  |  |  |  |  | 14 ± 3 |  | 6 ± 2 | > 40 | 8 ± 1 | > 40 |
